{"source": "ChEMBL document CHEMBL5543095", "about": "(Eur J Med Chem, 2024)", "key": {"U-87 MG [1]": {"system": "U-87 MG", "assay": "Induction of cell cycle arrest in human U87 cells assessed as accumulation of cells at […] at 0.5 uM measured after 48 hrs by PI staining based flow cytometry analysis (reference value: 8.55%)", "format": "functional, U-87MG ATCC"}, "Tubulin (Homo sapiens) [2]": {"target": "T1, Tubulin (Homo sapiens) (UniProt P68371+Q9H4B7+P0DPH7+P68366+Q13509+Q71U36+P04350+Q3ZCM7+P07437+P68363+Q9BQE3+Q6PEY2+Q13885+Q9BVA1+Q9BUF5)", "assay": "Induction of microtubule depolymerization in human U87 cells assessed as degradation of intracellular tubulin skeleton by measuring reduction in fluorescence intensity at 0.5 to 1 uM incubated for 48 hrs by Alexa Flour 555/DAPI staining based confocal microscopic analysis", "format": "cell-based", "conditions": "dose 0.5-1 µM"}, "U-87 MG [3]": {"system": "U-87 MG", "assay": "Induction of apoptosis in human U87 cells assessed as early apoptotic cells at 1.25 uM incubated for 48 hrs by Annexin V-FITC/PI staining based flow cytometry analysis (reference value: 6.25%)", "format": "functional, U-87MG ATCC"}, "U-87 MG [4]": {"system": "U-87 MG", "assay": "Induction of cell cycle arrest in human U87 cells assessed as accumulation of cells at […] at 4 uM measured after 48 hrs by PI staining based flow cytometry analysis (reference value: 8.55%)", "format": "functional, U-87MG ATCC"}, "U-87 MG [5]": {"system": "U-87 MG", "assay": "Induction of apoptosis in human U87 cells assessed as early apoptotic cells at 0.3125 uM incubated for 48 hrs by Annexin V-FITC/PI staining based flow cytometry analysis (reference value: 6.25%)", "format": "functional, U-87MG ATCC"}, "U-87 MG [6]": {"system": "U-87 MG", "assay": "Induction of cell cycle arrest in human U87 cells assessed as accumulation of cells at G1 phase at 1 uM measured after 48 hrs by PI staining based flow cytometry analysis (reference value: 72.6%)", "format": "functional, U-87MG ATCC"}, "U-87 MG [7]": {"system": "U-87 MG", "assay": "Induction of apoptosis in human U87 cells assessed as dead cells at 2.5 uM incubated for 48 hrs by Annexin V-FITC/PI staining based flow cytometry analysis (reference value: 0.013%)", "format": "functional, U-87MG ATCC"}, "U-87 MG [8]": {"system": "U-87 MG", "assay": "Induction of apoptosis in human U87 cells assessed as dead cells at 0.3125 uM incubated for 48 hrs by Annexin V-FITC/PI staining based flow cytometry analysis (reference value: 0.013%)", "format": "functional, U-87MG ATCC"}, "P-gp": {"system": "P-gp", "assay": "Substrate activity at P-gp in MDCK-MDR1 cells assessed as efflux ratio of apparent permeability across basolateral to apical side over apical to basolateral side at 10 uM incubated for 90 mins by LC-MS/MS analysis", "format": "ADME, cell-based, Canis lupus familiaris", "conditions": "dog"}, "[9]": {"assay": "Toxicity in C57BL/6 mouse implanted with mouse GL261-Luc cells assessed as histopathological changes in lung at 5 to 10 mg/kg, iv administered every other day on day 0,2,4,6,8,10 and measured after 12 days by H and E staining based analysis", "format": "organism-based", "conditions": "in vivo, 288 h, dose 5-10 mg/kg, time 12 day"}, "GL261-Luc [10]": {"system": "GL261-Luc", "assay": "Antitumor activity against mouse GL261-Luc cells implanted in iv dosed C57BL/6 mouse assessed as inhibition of tumor growth administered every other day on day 0,2,4,6,8,10 and measured on day 12 by bioluminescence imaging analysis", "format": "functional, organism-based", "conditions": "dose 5-10 mg/kg, time 12.0 day"}, "U-87 MG [11]": {"system": "U-87 MG", "assay": "Induction of apoptosis in human U87 cells assessed as live cells at 2.5 uM incubated for 48 hrs by Annexin V-FITC/PI staining based flow cytometry analysis (reference value: 91.7%)", "format": "functional, U-87MG ATCC"}, "U-87 MG [12]": {"system": "U-87 MG", "assay": "Induction of cell cycle arrest in human U87 cells assessed as accumulation of cells at G1 phase at 4 uM measured after 48 hrs by PI staining based flow cytometry analysis (reference value: 72.6%)", "format": "functional, U-87MG ATCC"}, "Tubulin (Homo sapiens) [13]": {"target": "T1, Tubulin (Homo sapiens)", "assay": "Inhibition of tubulin (unknown origin) polymerization assessed as reduction in steady state content of tubulins at 6 to 12 uM by fluorescence based analysis", "format": "protein-complex assay", "conditions": "dose 6-12 µM"}, "U-87 MG [14]": {"system": "U-87 MG", "assay": "Induction of apoptosis in human U87 cells assessed as dead cells at 1.25 uM incubated for 48 hrs by Annexin V-FITC/PI staining based flow cytometry analysis (reference value: 0.013%)", "format": "functional, U-87MG ATCC"}, "U-87MG ATCC [15]": {"system": "U-87MG ATCC", "assay": "Upregulation of CORO1A gene expression in human U87 cells by transcriptome analysis", "format": "functional, cell-based"}, "[16]": {"assay": "Toxicity in C57BL/6 mouse implanted with mouse GL261-Luc cells assessed as histopathological changes in spleen at 5 to 10 mg/kg, iv administered every other day on day 0,2,4,6,8,10 and measured after 12 days by H and E staining based analysis", "format": "organism-based", "conditions": "in vivo, 288 h, dose 5-10 mg/kg, time 12 day"}, "U-87 MG [17]": {"system": "U-87 MG", "assay": "Induction of apoptosis in human U87 cells assessed as late apoptotic cells at 0.3125 uM incubated for 48 hrs by Annexin V-FITC/PI staining based flow cytometry analysis (reference value: 2.08%)", "format": "functional, U-87MG ATCC"}, "U-87 MG [18]": {"system": "U-87 MG", "assay": "Induction of apoptosis in human U87 cells assessed as late apoptotic cells at 1.25 uM incubated for 48 hrs by Annexin V-FITC/PI staining based flow cytometry analysis (reference value: 2.08%)", "format": "functional, U-87MG ATCC"}, "Tubulin (Homo sapiens) [19]": {"target": "T1, Tubulin (Homo sapiens)", "assay": "Binding affinity to colchicine binding site of tubulin in human U87 cells assessed as inhibition of EBI-tubulin adduct formation by measuring disappearance of adduct bands pretreated for 2 hrs followed by EBI addition and measured after 2 hrs by Western blot analysis", "format": "cell-based", "conditions": "dose 10-100 µM, time 4.0 hrs"}, "U-87 MG [20]": {"system": "U-87 MG", "assay": "Induction of cell cycle arrest in human U87 cells assessed as accumulation of cells at G1 phase at 2 uM measured after 48 hrs by PI staining based flow cytometry analysis (reference value: 72.6%)", "format": "functional, U-87MG ATCC"}, "GL261-Luc [21]": {"system": "GL261-Luc", "assay": "Antivascular activity against mouse GL261-Luc cells implanted in C57BL/6 mouse assessed as reduction in tumor microvessel density at 5 to 10 mg/kg, iv administered every other day on day 0,2,4,6,8,10 and measured after 12 days by IHC staining based analysis", "format": "functional, organism-based", "conditions": "dose 5-10 mg/kg, time 12.0 day"}, "U-87 MG [22]": {"system": "U-87 MG", "assay": "Induction of apoptosis in human U87 cells assessed as early apoptotic cells at 2.5 uM incubated for 48 hrs by Annexin V-FITC/PI staining based flow cytometry analysis (reference value: 6.25%)", "format": "functional, U-87MG ATCC"}, "U-87 MG [23]": {"system": "U-87 MG", "assay": "Induction of cell cycle arrest in human U87 cells assessed as accumulation of cells at G1 phase at 0.5 uM measured after 48 hrs by PI staining based flow cytometry analysis (reference value: 72.6%)", "format": "functional, U-87MG ATCC"}, "U-87 MG [24]": {"system": "U-87 MG", "assay": "Induction of apoptosis in human U87 cells assessed as dead cells at 0.625 uM incubated for 48 hrs by Annexin V-FITC/PI staining based flow cytometry analysis (reference value: 0.013%)", "format": "functional, U-87MG ATCC"}, "GL261-Luc [25]": {"system": "GL261-Luc", "assay": "Antitumor activity against mouse GL261-Luc cells implanted in C57BL/6 mouse assessed as prolongation of animal survival time at 5 to 10 mg/kg, iv administered every other day on day 0,2,4,6,8,10 and measured after 12 days", "format": "functional, organism-based", "conditions": "dose 5-10 mg/kg, time 12.0 day"}, "U-87MG ATCC [26]": {"system": "U-87MG ATCC", "assay": "Downregulation of TUBA1A gene expression in human U87 cells by transcriptome analysis", "format": "functional, cell-based"}, "A549": {"system": "A549", "assay": "Antiproliferative activity against human A549 cells assessed as inhibition of cell growth inhibition incubated for 48 hrs by CCK-8 assay", "format": "functional, cell-based", "conditions": "A549, 48 h"}, "[27]": {"assay": "Toxicity in C57BL/6 mouse implanted with mouse GL261-Luc cells assessed as histopathological changes in kidney at 5 to 10 mg/kg, iv administered every other day on day 0,2,4,6,8,10 and measured after 12 days by H and E staining based analysis", "format": "organism-based", "conditions": "in vivo, 288 h, dose 5-10 mg/kg, time 12 day"}, "U-87 MG [28]": {"system": "U-87 MG", "assay": "Inhibition of cell migration in human U87 cells assessed as reduction in wound healing measured after 24 to 48 hrs by scratch assay", "format": "functional, cell-based", "conditions": "U-87MG ATCC, dose 0-1 µM, time 24-48 hrs"}}, "note": "Calls of active or inactive are those of the source. The calls are words filed in the database; no cut-off is given here.", "data": [{"smiles": "Cc1ccc2ccc3c(c2n1)OC(N)=C(C#N)C3c1ccccc1", "note": "(stereo not given)", "values": [{"measurement": "Activity", "setting": "U-87 MG [1]", "value": 10.6, "unit": "%"}, {"measurement": "Activity", "setting": "Tubulin (Homo sapiens) [2]", "value": "Active"}, {"measurement": "Activity", "setting": "U-87 MG [3]", "value": 21.2, "unit": "%"}, {"measurement": "Activity", "setting": "U-87 MG [4]", "value": 59.3, "unit": "%"}, {"measurement": "Activity", "setting": "U-87 MG [5]", "value": 7.01, "unit": "%"}, {"measurement": "Activity", "setting": "U-87 MG [6]", "value": 33, "unit": "%"}, {"measurement": "Activity", "setting": "U-87 MG [7]", "value": 0.1, "unit": "%"}, {"measurement": "Activity", "setting": "U-87 MG [8]", "value": 0.019, "unit": "%"}, {"measurement": "efflux ratio at 1.5 h, 10 µM", "setting": "P-gp", "value": 0.76}, {"measurement": "Activity", "setting": "[9]", "value": "Non-Toxic"}, {"measurement": "Activity", "setting": "GL261-Luc [10]", "value": "Dose-Dependent Effect"}, {"measurement": "Activity", "setting": "U-87 MG [11]", "value": 62.5, "unit": "%"}, {"measurement": "Activity", "setting": "U-87 MG [12]", "value": 13, "unit": "%"}, {"measurement": "inhibition", "setting": "Tubulin (Homo sapiens) [13]", "value": "Active"}, {"measurement": "Activity", "setting": "U-87 MG [14]", "value": 0.027, "unit": "%"}, {"measurement": "Activity", "setting": "U-87MG ATCC [15]", "value": "Active"}, {"measurement": "Activity", "setting": "[16]", "value": "Non-Toxic"}, {"measurement": "Activity", "setting": "U-87 MG [17]", "value": 4.87, "unit": "%"}, {"measurement": "Activity", "setting": "U-87 MG [18]", "value": 7.82, "unit": "%"}, {"measurement": "Activity", "setting": "Tubulin (Homo sapiens) [19]", "value": "Dose-Dependent Effect"}, {"measurement": "Activity", "setting": "U-87 MG [20]", "value": 14.4, "unit": "%"}, {"measurement": "Activity", "setting": "GL261-Luc [21]", "value": "Active"}, {"measurement": "Activity", "setting": "U-87 MG [22]", "value": 20.6, "unit": "%"}, {"measurement": "Activity", "setting": "U-87 MG [23]", "value": 72, "unit": "%"}, {"measurement": "Activity", "setting": "U-87 MG [24]", "value": 0.1, "unit": "%"}, {"measurement": "Activity", "setting": "GL261-Luc [25]", "value": "Active"}, {"measurement": "Activity", "setting": "U-87MG ATCC [26]", "value": "Active"}, {"measurement": "IC50", "setting": "A549", "value": 880, "unit": "nM"}, {"measurement": "Activity", "setting": "[27]", "value": "Non-Toxic"}, {"measurement": "inhibition", "setting": "U-87 MG [28]", "value": "Dose-Dependent Effect"}]}]}
